Common to all, as to set-up: recommended concentration 1 uM
Test [1] concerns the target SRSF protein kinase 1 (Homo sapiens) (UniProt Q96SB4). In words: Selectivity interaction (Kinase panel (binding assay)) EUB0001089a SRPK1. The settings on record: at 25 µM.
Test [2] concerns the target T1, Nuclear receptor subfamily 2 group C member 1 (Homo sapiens) (UniProt P13056).
T1 sequence (whole entry): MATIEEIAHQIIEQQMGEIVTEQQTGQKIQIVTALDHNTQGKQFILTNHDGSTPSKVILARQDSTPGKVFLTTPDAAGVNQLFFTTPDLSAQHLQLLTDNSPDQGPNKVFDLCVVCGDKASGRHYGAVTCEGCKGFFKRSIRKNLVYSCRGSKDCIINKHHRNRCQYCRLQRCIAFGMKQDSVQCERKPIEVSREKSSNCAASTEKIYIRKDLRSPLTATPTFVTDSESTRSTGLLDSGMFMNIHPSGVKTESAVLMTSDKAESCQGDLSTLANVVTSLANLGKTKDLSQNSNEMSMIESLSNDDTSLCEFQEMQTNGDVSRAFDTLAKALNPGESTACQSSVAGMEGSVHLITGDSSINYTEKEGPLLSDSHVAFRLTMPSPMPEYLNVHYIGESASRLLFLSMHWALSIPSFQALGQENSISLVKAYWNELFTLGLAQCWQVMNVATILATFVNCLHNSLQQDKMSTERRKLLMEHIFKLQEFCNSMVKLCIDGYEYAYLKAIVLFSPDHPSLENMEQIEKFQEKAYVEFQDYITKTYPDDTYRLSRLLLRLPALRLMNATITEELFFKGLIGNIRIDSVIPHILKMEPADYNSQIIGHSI
In words: Selectivity interaction (Reporter gene assay) EUB0000583a NR2C1. In general terms: A reporter such as luciferase makes a cellular process visible.

The target in test [3] is Nuclear receptor subfamily 2 group E member 1 (Homo sapiens) (UniProt Q9Y466). In words: Selectivity interaction (Reporter gene assay) EUB0000583a NR2E1.
For test [4], the target named is Steroidogenic factor 1 (Homo sapiens) (UniProt Q13285). In words: Selectivity interaction (Reporter gene assay) EUB0000583a NR5A1.
Test [5] has as its target Nuclear receptor subfamily 4immunitygroup A member 1 (Homo sapiens) (UniProt P22736). In words: Selectivity interaction (Reporter gene assay) EUB0000583a NR4A1.
Test [6] addresses T2, Alpha trans-inducing protein (Human alphaherpesvirus 1) (UniProt A0A5J6DW59). In words: Selectivity interaction (Reporter gene assay) EUB0000583a UL48.
In test [7] the target is T3, Hepatocyte nuclear factor 4-alpha (Homo sapiens) (UniProt P41235).
T3 sequence (whole entry): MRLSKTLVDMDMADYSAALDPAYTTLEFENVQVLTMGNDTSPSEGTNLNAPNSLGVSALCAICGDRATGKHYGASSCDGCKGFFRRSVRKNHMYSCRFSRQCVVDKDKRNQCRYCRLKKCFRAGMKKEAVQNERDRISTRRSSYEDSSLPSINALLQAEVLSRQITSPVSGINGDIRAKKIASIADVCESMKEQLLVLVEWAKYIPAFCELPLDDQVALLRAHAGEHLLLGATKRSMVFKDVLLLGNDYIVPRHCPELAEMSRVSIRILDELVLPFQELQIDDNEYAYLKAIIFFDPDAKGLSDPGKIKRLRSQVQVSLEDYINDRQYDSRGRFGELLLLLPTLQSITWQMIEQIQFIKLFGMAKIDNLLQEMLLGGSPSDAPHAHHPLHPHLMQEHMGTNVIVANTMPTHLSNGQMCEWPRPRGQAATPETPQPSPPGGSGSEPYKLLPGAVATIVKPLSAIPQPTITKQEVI
The test is described as follows: Selectivity interaction (Reporter gene assay) EUB0000583a HNF4A.

The target in test [8] is T4, Retinoic acid receptor RXR-alpha (Homo sapiens) (UniProt P19793).
T4 sequence (whole entry): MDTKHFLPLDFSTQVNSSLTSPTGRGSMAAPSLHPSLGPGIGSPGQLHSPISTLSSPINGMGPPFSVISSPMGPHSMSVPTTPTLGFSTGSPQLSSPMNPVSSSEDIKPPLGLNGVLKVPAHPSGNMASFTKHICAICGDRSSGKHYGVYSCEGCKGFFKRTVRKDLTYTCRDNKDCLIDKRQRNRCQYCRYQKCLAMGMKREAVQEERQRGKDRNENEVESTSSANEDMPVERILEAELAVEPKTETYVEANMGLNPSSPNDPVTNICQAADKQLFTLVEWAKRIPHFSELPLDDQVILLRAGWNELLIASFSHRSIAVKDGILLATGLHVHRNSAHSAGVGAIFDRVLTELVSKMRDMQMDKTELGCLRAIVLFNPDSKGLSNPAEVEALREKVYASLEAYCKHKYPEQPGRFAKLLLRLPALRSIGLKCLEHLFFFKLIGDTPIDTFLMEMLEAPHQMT
The test is described as follows: Selectivity interaction (Reporter gene assay) EUB0000583a RXRA. Particulars: reference bexarotene 1 uM, Selectivity number of off-targets 0.0, Selectivity number of targets 1.0, Source Knowledge inhouse.

For test [9], the target named is T1, Nuclear receptor subfamily 2 group C member 1 (Homo sapiens). In words: Selectivity interaction (Reporter gene assay) EUB0000585a NR2C1.
The target of test [10] is T4, Retinoic acid receptor RXR-alpha (Homo sapiens). The test is described as follows: Selectivity interaction (Reporter gene assay) EUB0000585a RXRA. The settings on record: reference bexarotene 1 uM, Selectivity number of off-targets 0.0, Selectivity number of targets 1.0, Source Knowledge inhouse.
The target in test [11] is Steroidogenic factor 1 (Homo sapiens) (UniProt Q13285). In words: Selectivity interaction (Reporter gene assay) EUB0000585a NR5A1.
Test [12] has as its target T2, Alpha trans-inducing protein (Human alphaherpesvirus 1). In words: Selectivity interaction (Reporter gene assay) EUB0000585a UL48.
The target in test [13] is T3, Hepatocyte nuclear factor 4-alpha (Homo sapiens). The test is described as follows: Selectivity interaction (Reporter gene assay) EUB0000585a HNF4A.
For test [14], the target named is Nuclear receptor subfamily 4immunitygroup A member 1 (Homo sapiens) (UniProt P22736). In words: Selectivity interaction (Reporter gene assay) EUB0000585a NR4A1.
The target in test [15] is Nuclear receptor subfamily 2 group E member 1 (Homo sapiens) (UniProt Q9Y466). The test is described as follows: Selectivity interaction (Reporter gene assay) EUB0000585a NR2E1.
Test [16] addresses Nuclear receptor subfamily 4immunitygroup A member 1 (Homo sapiens) (UniProt P22736). The test is described as follows: Selectivity interaction (Reporter gene assay) EUB0001139a NR4A1.
The target in test [17] is T3, Hepatocyte nuclear factor 4-alpha (Homo sapiens). In words: Selectivity interaction (Reporter gene assay) EUB0001139a HNF4A.
In test [18] the target is T4, Retinoic acid receptor RXR-alpha (Homo sapiens). The test is described as follows: Selectivity interaction (Reporter gene assay) EUB0001139a RXRA.
Test [19] deals with T2, Alpha trans-inducing protein (Human alphaherpesvirus 1). In words: Selectivity interaction (Reporter gene assay) EUB0001139a UL48.
The target in test [20] is Nuclear receptor subfamily 2 group E member 1 (Homo sapiens) (UniProt Q9Y466). The test is described as follows: Selectivity interaction (Reporter gene assay) EUB0001139a NR2E1.
Test [21] concerns the target T1, Nuclear receptor subfamily 2 group C member 1 (Homo sapiens). The test is described as follows: Selectivity interaction (Reporter gene assay) EUB0001139a NR2C1.
Test [22] concerns the target Steroidogenic factor 1 (Homo sapiens) (UniProt Q13285). The test is described as follows: Selectivity interaction (Reporter gene assay) EUB0001139a NR5A1. Particulars: screened at recom. conc., Selectivity number of off-targets 1.0, Selectivity number of targets 5.0, Source Knowledge inhouse.

T2 sequence (A0A5J6DW59 as listed by the source): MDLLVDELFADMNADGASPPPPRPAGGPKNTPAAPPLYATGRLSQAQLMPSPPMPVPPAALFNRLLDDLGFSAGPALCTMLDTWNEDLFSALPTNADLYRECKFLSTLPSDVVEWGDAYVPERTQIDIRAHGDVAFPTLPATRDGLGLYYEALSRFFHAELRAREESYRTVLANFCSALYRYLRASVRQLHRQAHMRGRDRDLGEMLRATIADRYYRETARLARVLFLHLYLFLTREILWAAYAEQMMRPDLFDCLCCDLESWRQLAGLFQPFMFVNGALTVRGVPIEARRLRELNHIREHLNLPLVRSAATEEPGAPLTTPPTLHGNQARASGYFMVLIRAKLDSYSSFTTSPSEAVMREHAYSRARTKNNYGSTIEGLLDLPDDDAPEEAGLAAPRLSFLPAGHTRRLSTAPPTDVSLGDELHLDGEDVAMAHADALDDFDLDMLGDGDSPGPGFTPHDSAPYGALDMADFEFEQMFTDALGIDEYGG
Chain of Nuclear receptor subfamily 4immunitygroup A member 1 (Homo sapiens) (P22736 whole entry): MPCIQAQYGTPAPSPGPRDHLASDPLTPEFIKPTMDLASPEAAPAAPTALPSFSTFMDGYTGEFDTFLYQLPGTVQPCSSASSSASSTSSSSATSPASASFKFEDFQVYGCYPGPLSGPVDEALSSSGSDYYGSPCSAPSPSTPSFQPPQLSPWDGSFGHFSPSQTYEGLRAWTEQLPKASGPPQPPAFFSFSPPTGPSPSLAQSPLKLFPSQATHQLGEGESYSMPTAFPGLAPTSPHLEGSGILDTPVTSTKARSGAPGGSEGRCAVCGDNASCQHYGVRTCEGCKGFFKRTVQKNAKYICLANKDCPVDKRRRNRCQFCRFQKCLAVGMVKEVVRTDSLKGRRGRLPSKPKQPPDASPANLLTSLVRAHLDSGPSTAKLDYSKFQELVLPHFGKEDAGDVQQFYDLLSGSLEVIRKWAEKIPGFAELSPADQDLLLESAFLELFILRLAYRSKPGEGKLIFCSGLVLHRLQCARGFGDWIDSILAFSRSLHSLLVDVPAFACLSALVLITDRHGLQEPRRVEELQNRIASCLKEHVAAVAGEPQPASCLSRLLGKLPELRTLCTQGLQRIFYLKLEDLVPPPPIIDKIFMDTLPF
Chain of Nuclear receptor subfamily 2 group E member 1 (Homo sapiens) (Q9Y466 whole entry): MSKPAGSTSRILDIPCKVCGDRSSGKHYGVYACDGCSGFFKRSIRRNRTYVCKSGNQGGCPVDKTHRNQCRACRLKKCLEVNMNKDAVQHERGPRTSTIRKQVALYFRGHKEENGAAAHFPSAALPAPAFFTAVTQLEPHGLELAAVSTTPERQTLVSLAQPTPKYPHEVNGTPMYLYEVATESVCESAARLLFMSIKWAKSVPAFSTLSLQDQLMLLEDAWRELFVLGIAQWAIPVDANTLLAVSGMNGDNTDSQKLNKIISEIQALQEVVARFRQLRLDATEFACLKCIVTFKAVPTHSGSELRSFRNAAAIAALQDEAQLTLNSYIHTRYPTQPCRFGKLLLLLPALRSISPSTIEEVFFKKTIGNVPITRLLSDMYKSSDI
Chain of Steroidogenic factor 1 (Homo sapiens) (Q13285 whole entry): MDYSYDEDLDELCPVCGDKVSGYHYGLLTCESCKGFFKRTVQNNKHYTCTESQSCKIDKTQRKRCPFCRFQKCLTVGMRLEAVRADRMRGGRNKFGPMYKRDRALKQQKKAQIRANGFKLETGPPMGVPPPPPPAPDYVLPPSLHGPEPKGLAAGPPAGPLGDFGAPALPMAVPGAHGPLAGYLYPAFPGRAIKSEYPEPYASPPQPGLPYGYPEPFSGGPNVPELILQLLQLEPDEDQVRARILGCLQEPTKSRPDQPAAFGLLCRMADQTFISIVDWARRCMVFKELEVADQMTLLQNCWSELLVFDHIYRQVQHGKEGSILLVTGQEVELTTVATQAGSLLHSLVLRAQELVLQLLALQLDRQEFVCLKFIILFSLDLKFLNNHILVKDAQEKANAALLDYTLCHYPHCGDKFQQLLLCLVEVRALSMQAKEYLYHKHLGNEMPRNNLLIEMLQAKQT
Chain of SRSF protein kinase 1 (Homo sapiens) (Q96SB4 whole entry): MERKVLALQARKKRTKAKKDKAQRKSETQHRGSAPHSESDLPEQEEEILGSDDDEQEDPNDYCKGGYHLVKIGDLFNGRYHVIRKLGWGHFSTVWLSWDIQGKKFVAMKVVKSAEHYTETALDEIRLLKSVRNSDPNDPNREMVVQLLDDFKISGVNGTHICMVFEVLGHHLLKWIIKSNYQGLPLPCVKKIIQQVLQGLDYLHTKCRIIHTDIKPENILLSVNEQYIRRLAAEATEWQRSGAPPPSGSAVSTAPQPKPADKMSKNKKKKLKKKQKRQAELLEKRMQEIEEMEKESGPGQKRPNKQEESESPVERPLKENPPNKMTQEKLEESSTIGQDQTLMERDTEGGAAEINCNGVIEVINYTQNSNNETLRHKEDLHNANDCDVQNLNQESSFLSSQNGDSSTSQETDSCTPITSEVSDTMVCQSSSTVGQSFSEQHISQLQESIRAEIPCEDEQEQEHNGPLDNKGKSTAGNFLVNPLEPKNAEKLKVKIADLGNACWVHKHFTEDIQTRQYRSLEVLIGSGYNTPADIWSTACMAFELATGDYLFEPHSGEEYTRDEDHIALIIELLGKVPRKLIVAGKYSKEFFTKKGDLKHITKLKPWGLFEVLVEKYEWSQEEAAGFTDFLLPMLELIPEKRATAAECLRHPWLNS

`CN1CC(C(=O)NCc2ccc3c(-c4cccc(C(N)=S)c4)cn(C4CCN(S(=O)(=O)C(F)(F)F)CC4)c3c2)C1` had an inhibition in [1] of 60%.
On to `C=C1/C(=C\C=C2/CCC[C@]3(C)[C@@H]([C@H](C)/C=C/[C@H](C)C(C)C)CC[C@@H]23)C[C@@H](O)C[C@@H]1O`, for which the Fold activation was 1.19 in [2] and 1.08 in test [4]. For the same molecule, the results for the Remaining activity in test [3], in test [5] and in test [7] were 0.883, 0.837 and 0.993, respectively. Moreover, the P-value in test [6] was found to be 0.000557. This molecule returned a Relative activation in test [8] of 0.635%.
With `Cc1cc(OCC(=O)O)cc(C)c1Cc1ccc(O)c(C(C)C)c1`, the Remaining activity in test [9] is 0.638; in [11], 0.672; in test [13] it was 0.623; in test [14], 0.496; in test [15], 0.57. Further, the Relative activation in test [10] stood at 0.666%. Also, the P-value in test [12] was 0.00063.
With `O=C(O)Cc1cc(I)c(Oc2ccc(O)c(I)c2)c(I)c1`, the Remaining activity worked out at 0.863 in [16] and 0.686 in test [21]. Moreover, the results for the Fold activation in test [17], in test [20] and in test [22] were 1.47, 1.12 and 2, respectively. This molecule also returned a Relative activation in test [18] of 0.726%. For the same molecule, the P-value in test [19] is 0.009.

The term inhibition denotes the change of the read-out against control, counted positive when it falls. A lower inhibition goes with a response near the control.

The record behind these values is ChEMBL document CHEMBL5715260, “Selectivity Literature for EUbOPEN Chemogenomic Library” (2024).
